In ChEMBL document CHEMBL4513160, “CO-ADD screening of MMV (CH) - Small Polar Library”:
Converted amounts (≈) assume the structure as drawn.

Key:
Pseudomonas aeruginosa [1] = test: microbe, parasite or virus in culture; details: ATCC 27853, 18 h, ASSAY_TEST Inhibition of Bacterial Growth, detection method Absorption (OD600), MEDIA CAMHB, plate type 384well, NBS, CORNING #3640
Description: Antibacterial activity against Pseudomonas aeruginosa ATCC 27853 (CO-ADD:GN_042); MIC in CAMBH media using NBS plates, by OD(600)

Acinetobacter baumannii = test: microbe, parasite or virus in culture; details: ATCC 19606, 18 h, ASSAY_TEST Inhibition of Bacterial Growth, detection method Absorption (OD600), MEDIA CAMHB, plate type 384well, NBS, CORNING #3640
Description: Antibacterial activity against Acinetobacter baumannii ATCC 19606 (CO-ADD:GN_034); MIC in CAMBH media using NBS plates, by OD600

Pseudomonas aeruginosa [2] = test: Antibacterial activity against Pseudomonas aeruginosa PAO397 [PAO1 d(mexAB-oprM) d(mexCD-oprJ) d(mexEF-oprN) d(mexJKL) d(mexXY) d(opmH)] (CO-ADD:GN_211); MIC in CAMBH media using NBS plates, by OD(600); format: functional; details: ASSAY_TEST Inhibition of Bacterial Growth, detection method Absorption (OD600), MEDIA CAMHB, plate type 384well, CORNING #3640, time 18 hr

Row | Compound | MIC (Pseudomonas aeruginosa [1]) [µM] | MIC (Acinetobacter baumannii) [µM] | MIC (Pseudomonas aeruginosa [2]) [µM]
1 | NCc1cccc(-c2nccs2)c1 | > 300 | > 300 | > 300
2 | O=S1(=O)CCC(CNc2ccnc3ccc(Cl)cc23)C1 (centres undefined) | > 300 | > 300 | > 300
3 | Cc1ccc(OC(C)CN)cc1 (centres undefined) | > 300 | > 300 | > 300
4 | c1cn2c(n1)COCC2 | > 300 | > 300 | > 300
5 | Cc1c[nH]c2ccccc2c1=N | > 300 | > 300 | > 300
6 | COc1cc(F)cc(NCC(=O)NCc2ccco2)c1 | > 300 | > 300 | > 300
7 | Fc1cccnc1OC1CCNCC1 | > 300 | > 300 | > 300
8 | O=C(NCCO)Nc1nc2ccccc2s1 | > 300 | > 300 | > 300
9 | COc1ccc(OC)c(NC(=O)c2ccccn2)c1 | > 300 | > 300 | > 300
10 | NS(=O)(=O)NCC1CCN(c2cccc(Br)c2)C1 (centres undefined) | > 300 | > 300 | > 300
11 | COCC(O)CNc1c(C)c(C)nc2ccccc12 (centres undefined) | > 300 | > 300 | > 300
12 | Cc1cc(C(=O)NC2CCC(=O)NC2)cc(Cl)c1Br (centres undefined) | > 300 | > 300 | > 300
13 | COCC(C)NCc1ccccc1CN1CCCC1=O (centres undefined) | > 300 | > 300 | > 300
14 | CCC(C#N)NC(=O)c1cnc(OC(C)C)c(Cl)c1 (centres undefined) | > 300 | > 300 | > 300
15 | CN(C)c1nc(Cl)c(CN)s1 | 200 (≈ 38.3 µg/mL) | > 300 | 200 (≈ 38.3 µg/mL)
16 | NCCC(=O)N1CCCC(CCc2ccc(F)cc2)C1 (centres undefined) | > 300 | > 300 | > 300
17 | C1CCC(C2CCNCC2)OC1 (centres undefined) | > 300 | > 300 | > 300
18 | NC(=O)C1CCN(c2ccnc3cc(Br)ccc23)C1 (centres undefined) | > 300 | > 300 | > 300
19 | CCOc1nnc(CN2CCC(C(N)=O)CC2)s1 | > 300 | > 300 | > 300
20 | Cc1cc(C(=O)Nc2ccc3c(c2)CCN3)n(C)n1 | > 300 | > 300 | > 300
21 | Cc1ccc(C2(O)CCNC2)cc1 (centres undefined) | 300 (≈ 53.2 µg/mL) | > 300 | > 300
22 | O=C(NCCO)Nc1cc(F)ccc1N1CCCCC1 | > 300 | > 300 | 300 (≈ 84.4 µg/mL)
23 | OCCCNc1ccnc2ccc(Cl)cc12 | > 300 | > 300 | > 300
24 | Cc1cccc(C(=O)Nc2ncc(C)s2)n1 | > 300 | > 300 | > 300
25 | CNCC(=O)NC(C)c1nc(-c2ccc(Br)cc2)no1 (centres undefined) | > 300 | > 300 | > 300
26 | NCC1CCN(Cc2cccc(F)c2)CC1 | > 300 | > 300 | > 300
27 | OCC(O)CNc1ccnc2ccc(Br)cc12 (centres undefined) | > 300 | > 300 | > 300
28 | CC(CN)N(C)C(=O)Cc1cccc2ccccc12 (centres undefined) | > 300 | > 300 | –

The remaining lines, values ahead:

Row | MIC (Pseudomonas aeruginosa [1]) [µM] | MIC (Acinetobacter baumannii) [µM] | MIC (Pseudomonas aeruginosa [2]) [µM] | Compound
29 | > 300 | > 300 | > 300 | NCC(=O)N1CCCC(CCc2ccc(F)cc2)C1 (centres undefined)
30 | > 300 | > 300 | > 300 | CS(=O)(=O)c1ccc(CN)o1
31 | 60 (≈ 16.6 µg/mL) | > 300 | > 300 | COCCOc1ccc(CNC(=O)c2ccoc2)cn1
32 | > 300 | > 300 | > 300 | COc1ccc2c(c1)CCCC(=O)N2
33 | > 300 | > 300 | > 300 | COc1cccc2c(N)c(C)cnc12
34 | > 300 | > 300 | > 300 | O=C(NCc1cccs1)c1cnsn1
35 | > 300 | > 300 | > 300 | CC(C)C(=O)c1cnccc1N
36 | > 300 | > 300 | > 300 | Cn1c(CN)nc2cc(Cl)ccc21
37 | > 300 | > 300 | > 300 | O=C(Nc1ccncc1)c1coc(Br)c1
38 | > 300 | > 300 | > 300 | COc1cccc(CNCc2ccccn2)c1
39 | > 300 | > 300 | > 300 | Cc1ccc(C(=O)NCc2ccnc(N(C)C)c2)s1
40 | > 300 | > 300 | 60 (≈ 17.5 µg/mL) | CC(C)CNC(=O)CSc1n[nH]c(-c2ccccn2)n1
41 | > 300 | > 300 | > 300 | Nc1ccnc(-c2ccccc2)c1
42 | > 300 | > 300 | > 300 | CNC(=O)Cn1cc(-c2cccc3cnccc23)cn1
43 | > 300 | > 300 | > 300 | CN(C)c1ccc(-c2[nH][nH]c(=O)c2CCN)cc1
44 | > 300 | > 300 | > 300 | c1cc(CNc2ncnc3[nH]ncc23)c2c(c1)OCO2
45 | > 300 | > 300 | > 300 | CC(N)c1nc(-c2ccc(Br)cc2)c[nH]1 (centres undefined)
46 | > 300 | > 300 | > 300 | O=C(Nc1ccnc(CO)c1)c1ccc(F)cc1I
47 | > 300 | > 300 | > 300 | CN(C)C(=O)Nc1cc(F)cc(F)c1

Row | MIC (Pseudomonas aeruginosa [1]) [µM] | MIC (Acinetobacter baumannii) [µM] | MIC (Pseudomonas aeruginosa [2]) [µM] | Compound
48 | > 300 | > 300 | > 300 | CS(=O)(=O)N1CCSc2ccc(Cl)cc21
49 | > 300 | > 300 | > 300 | CCCSc1ccc(NC(=O)NCCN)cc1
50 | > 300 | > 300 | > 300 | CN(Cc1ccc(Cl)cc1)C(=O)C1CCNC1 (centres undefined)
51 | > 300 | > 300 | > 300 | CCC1Oc2c(Cl)cccc2NC1=O (centres undefined)
52 | > 300 | > 300 | > 300 | NS(=O)(=O)NCCCc1ccc(Br)cc1F
53 | > 300 | > 300 | > 300 | CC(=O)Nc1ccc(-c2ccc(C#N)nc2)cc1
54 | > 300 | > 300 | > 300 | CS(=O)(=O)CCNc1ccnc2ccc(Br)cc12
55 | > 300 | > 300 | > 300 | Cc1ocnc1C(=O)Nc1ccc2c(c1)NCCC2
56 | > 300 | > 300 | > 300 | NCC(=O)N1CCCC(CCc2ccc(F)cc2F)C1 (centres undefined)
57 | > 300 | > 300 | > 300 | COc1c(C(=O)N2CCOCC2)sc2ccc(F)cc12
58 | > 300 | > 300 | > 300 | O=C(c1ccc(Br)s1)N1CCN(c2ccccn2)CC1
59 | > 300 | > 300 | > 300 | COc1ccc(CNCCCSc2nnnn2C)cc1
60 | > 300 | > 300 | > 300 | COC(CN)CC(C)C (centres undefined)
61 | > 300 | > 300 | > 300 | NCc1nc(-c2ccc(Cl)cc2)c[nH]1
62 | > 300 | > 300 | > 300 | COc1ccc(-c2ccnc(CO)c2)c(OC)c1
63 | > 300 | > 300 | 200 (≈ 59.3 µg/mL) | COc1ccc(NC(=O)c2ccc(S(N)(=O)=O)o2)cc1
64 | > 300 | > 300 | > 300 | NCc1cnn(-c2ccc(Br)cc2)c1
65 | > 300 | > 300 | > 300 | CCc1cccc2c1OCCC2N (centres undefined)
